pIC50: −log10 of the molar value. Like-named read-outs stand apart in the source and are kept apart here.
Key:
[1] = target: T1, neurokinin-1 (NK-1) receptor (Homo sapiens, UniProt P25103); experiment: NK-1 Binding assay ([125I] Substance P competition, U373 cell membranes); conditions: U373 membranes, [125I] Substance P displacement, read-out: NK-1 IC50
T1 construct: a human glioblastoma-astrocytoma cell line that endogenously expresses the neurokinin-1 (NK-1) receptor; endogenous in cells; host or cells: U373 human glioblastoma-astrocytoma cells (membranes)
Procedure, shortened: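 Membranes were prepared from U373 human glioblastoma-astrocytoma cells, which express NK-1 endogenously, in 50 mM Tris-HCl pH 7.4 with 3 mM MnCl2, BSA and protease inhibitors. IC50 taken as the midpoint of the specific-binding displacement curve.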

[2] = target: T2, human serotonin transporters (Homo sapiens, UniProt P31645); experiment: Serotonin transporter binding assay ([3H]-citalopram competition, HEK-hSERT cell membranes)
T2 construct: expressed in transfected cells
Procedure, shortened: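 Competition binding against 1 nM [3H]-citalopram (1 hr, 25 °C, Tris pH 7.4 with NaCl/KCl) on stably transfected HEK-hSERT cell membranes, bound ligand collected on filters. Fluoxetine (10 μM) defined nonspecific binding; curve midpoint gives IC50, convertible to Ki by Cheng–Prusoff.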

[3] = Table 1, HEK-hSERT membranes, [3H]-citalopram displacement, read-out: SERT IC50
[4] = Table 2, HEK-hSERT membranes, [3H]-citalopram displacement, read-out: SERT IC50

T2 sequence (P31645 whole entry): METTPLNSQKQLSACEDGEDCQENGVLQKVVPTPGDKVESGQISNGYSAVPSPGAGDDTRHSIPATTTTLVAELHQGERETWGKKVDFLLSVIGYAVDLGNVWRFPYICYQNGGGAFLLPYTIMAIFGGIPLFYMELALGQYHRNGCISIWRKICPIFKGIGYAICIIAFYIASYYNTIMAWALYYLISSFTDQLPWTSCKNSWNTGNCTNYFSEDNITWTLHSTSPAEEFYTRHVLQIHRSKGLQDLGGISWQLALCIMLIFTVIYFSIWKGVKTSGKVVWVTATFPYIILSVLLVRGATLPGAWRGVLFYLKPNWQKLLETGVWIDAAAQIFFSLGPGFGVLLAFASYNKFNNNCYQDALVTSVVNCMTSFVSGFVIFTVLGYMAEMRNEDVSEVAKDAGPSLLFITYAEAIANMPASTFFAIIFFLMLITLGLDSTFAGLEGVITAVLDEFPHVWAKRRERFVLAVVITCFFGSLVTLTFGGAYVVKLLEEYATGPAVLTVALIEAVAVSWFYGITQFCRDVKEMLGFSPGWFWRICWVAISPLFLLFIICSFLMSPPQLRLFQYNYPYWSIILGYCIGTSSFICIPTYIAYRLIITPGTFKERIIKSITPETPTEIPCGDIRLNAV
T1 sequence (P25103 whole entry): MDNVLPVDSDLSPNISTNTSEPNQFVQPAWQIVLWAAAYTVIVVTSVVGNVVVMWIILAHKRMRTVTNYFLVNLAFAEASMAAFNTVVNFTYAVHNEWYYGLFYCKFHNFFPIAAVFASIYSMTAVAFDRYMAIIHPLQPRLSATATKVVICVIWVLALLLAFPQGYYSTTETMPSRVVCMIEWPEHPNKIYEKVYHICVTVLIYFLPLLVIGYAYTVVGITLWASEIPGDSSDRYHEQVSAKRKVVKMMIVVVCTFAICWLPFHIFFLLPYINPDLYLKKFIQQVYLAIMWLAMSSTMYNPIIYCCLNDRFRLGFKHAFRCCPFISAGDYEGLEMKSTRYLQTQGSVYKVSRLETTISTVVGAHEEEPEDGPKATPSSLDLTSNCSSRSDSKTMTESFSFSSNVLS

Compound | pIC50 ([1]; Table 1) | pIC50 [2, 3] | pIC50 ([1]; Table 2) | pIC50 [2, 4] | pIC50 [2]
FC(F)(F)c1cc(COCC2(c3ccccc3)CCNCC2)cc(-c2cccc3c2Sc2ccccc2S3)c1 | < 6.52 | < 6.52 | – | – | –
COc1cccc(OC)c1-c1cc(COCC2(c3ccccc3)CCNCC2)cc(C(F)(F)F)c1 | 7.00 to 11.00 | 7.00 to 11.00 | – | – | –
FC(F)(F)c1cc(COCC2(c3ccccc3)CCNCC2)cc(-c2ccc3c(c2)OCO3)c1 | 7.00 to 11.00 | 7.00 to 11.00 | – | – | –
Fc1cccc(F)c1-c1cc(COCC2(c3ccccc3)CCNCC2)cc(C(F)(F)F)c1 | 7.00 to 11.00 | 7.00 to 11.00 | – | – | –
Nc1cccc(-c2cc(COCC3(c4ccccc4)CCNCC3)cc(C(F)(F)F)c2)c1 | 7.00 to 11.00 | 7.00 to 11.00 | – | – | –
Fc1cc(-c2cc(COCC3(c4ccccc4)CCNCC3)cc(C(F)(F)F)c2)c(Cl)cn1 | 7.00 to 11.00 | 7.00 to 11.00 | – | – | –
COc1ccc(-c2cc(COCC3(c4ccccc4)CCNCC3)cc(C(F)(F)F)c2)cc1C | – | – | 7.00 to 11.00 | 7.00 to 11.00 | –
CN1CCC(COCc2cc(-c3ccc(F)cc3F)cc(C(F)(F)F)c2)(c2ccccc2)CC1 | – | – | 7.00 to 11.00 | – | 7.00 to 11.00
O=[N+]([O-])c1ccc(-c2cc(COCC3(c4ccccc4)CCNCC3)cc(C(F)(F)F)c2)cc1 | – | – | 7.00 to 11.00 | 7.00 to 11.00 | –
FC(F)(F)c1cc(COCC2(c3ccccc3)CCNCC2)cc(-c2nccs2)c1 | 7.00 to 11.00 | 7.00 to 11.00 | – | – | –
Cc1cccc(C)c1-c1cc(COCC2(c3ccccc3)CCNCC2)cc(C(F)(F)F)c1 | 6.52 to 7.00 | 6.52 to 7.00 | – | – | –
Fc1ccc(-c2cc(COCC3(c4ccccc4)CCNCC3)cc(C(F)(F)F)c2)cc1F | 7.00 to 11.00 | 7.00 to 11.00 | – | – | –
O=C(Nc1ccc(-c2cc(COCC3(c4ccccc4)CCNCC3)cc(C(F)(F)F)c2)cc1)OCc1ccccc1 | – | – | 7.00 to 11.00 | 7.00 to 11.00 | –
Cc1ccc(-c2cc(COCC3(c4ccccc4)CCNCC3)cc(C(F)(F)F)c2)cc1 | 7.00 to 11.00 | 7.00 to 11.00 | – | – | –
C[C@@H](OCC1(c2ccccc2)CCNCC1)c1cc(-c2ccc(C#N)cc2)cc(C(F)(F)F)c1 | 7.00 to 11.00 | 7.00 to 11.00 | – | – | –
CCOc1ccc(-c2cc(COCC3(c4ccccc4)CCNCC3)cc(C(F)(F)F)c2)cc1 | 7.00 to 11.00 | 7.00 to 11.00 | – | – | –
O=[N+]([O-])c1cccc(-c2cc(COCC3(c4ccccc4)CCNCC3)cc(C(F)(F)F)c2)c1 | 7.00 to 11.00 | 7.00 to 11.00 | – | – | –
CN1CCC(COCc2cc(-c3ccc(F)c(Cl)c3)cc(C(F)(F)F)c2)(c2ccccc2)CC1 | – | – | 7.00 to 11.00 | – | 7.00 to 11.00
FC(F)(F)c1cc(COCC2(c3ccccc3)CCNCC2)cc(-n2nnnc2C(F)(F)F)c1 | < 6.52 | 7.00 to 11.00 | – | – | –
CN1CCC(COCc2cc(F)cc(-c3ccc(C#N)cc3)c2)(c2ccccc2)CC1 | – | – | 7.00 to 11.00 | – | 7.00 to 11.00

Compound | pIC50 ([1]; Table 1) | pIC50 [2, 3] | pIC50 ([1]; Table 2) | pIC50 [2, 4] | pIC50 [2]
NC(=O)c1cc(COCC2(c3ccccc3)CCNCC2)cc(-c2ccc(F)cc2)c1 | – | – | < 6.52 | 7.00 to 11.00 | –
COc1ccc(OC)c(-c2cc(COCC3(c4ccccc4)CCNCC3)cc(C(F)(F)F)c2)c1 | < 6.52 | 7.00 to 11.00 | – | – | –
CCOc1cccc(-c2cc(COCC3(c4ccccc4)CCNCC3)cc(C(F)(F)F)c2)c1 | 6.52 to 7.00 | 7.00 to 11.00 | – | – | –
Cc1cc(-c2cc(COCC3(c4ccccc4)CCN(C)CC3)cc(C(F)(F)F)c2)ccc1C#N | – | – | 7.00 to 11.00 | – | 7.00 to 11.00
OCc1cccc(-c2cc(COCC3(c4ccccc4)CCNCC3)cc(C(F)(F)F)c2)c1 | 6.52 to 7.00 | 7.00 to 11.00 | – | – | –
N#Cc1ccc(-c2cc(COCC3(c4ccccc4)CCNCC3)cc(C(F)(F)F)c2)nc1 | – | – | 7.00 to 11.00 | 7.00 to 11.00 | –
CC(C)(C)c1ccc(-c2cc(COCC3(c4ccccc4)CCNCC3)cc(C(F)(F)F)c2)cc1 | < 6.52 | < 6.52 | – | – | –
Fc1ccc(F)c(-c2cc(COCC3(c4ccccc4)CCNCC3)cc(C(F)(F)F)c2)c1 | – | – | 7.00 to 11.00 | 7.00 to 11.00 | –
Cc1ccc(C)c(-c2cc(COCC3(c4ccccc4)CCNCC3)cc(C(F)(F)F)c2)c1 | – | – | < 6.52 | 7.00 to 11.00 | –
COc1cc(COCC2(c3ccccc3)CCNCC2)cc(-c2ccc(F)cc2)c1 | – | – | 7.00 to 11.00 | 7.00 to 11.00 | –
COC(=O)c1ccc(-c2cc(COCC3(c4ccccc4)CCNCC3)cc(C(F)(F)F)c2)cc1 | – | – | 7.00 to 11.00 | 7.00 to 11.00 | –
CN1CCC(COCc2cc(-c3ccc(F)cc3)cc(C(F)(F)F)c2)(c2ccc(F)cc2)CC1 | – | – | 7.00 to 11.00 | – | 7.00 to 11.00
CC(OCC1(c2ccccc2)CCNCC1)c1cc(F)cc(-c2ccc(C#N)cc2)c1 (centres unmarked) | – | – | 7.00 to 11.00 | 7.00 to 11.00 | –
Fc1cc(F)cc(-c2cc(COCC3(c4ccccc4)CCNCC3)cc(C(F)(F)F)c2)c1 | 7.00 to 11.00 | 7.00 to 11.00 | – | – | –
CN1CCC(COCc2cc(-c3ccc(C#N)cc3)cc(C(F)(F)F)c2)(c2ccc(F)c(F)c2)CC1 | – | – | 7.00 to 11.00 | – | 7.00 to 11.00
N#Cc1ccc(-c2cc(COCC3(c4ccccc4)CCNCC3)cc(C(F)(F)F)c2)cc1 | 7.00 to 11.00 | 7.00 to 11.00 | – | – | –
CSc1ccccc1-c1cc(COCC2(c3ccccc3)CCNCC2)cc(C(F)(F)F)c1 | 6.52 to 7.00 | 7.00 to 11.00 | – | – | –
COc1ccc(C)cc1-c1cc(COCC2(c3ccccc3)CCNCC2)cc(C(F)(F)F)c1 | – | – | < 6.52 | 7.00 to 11.00 | –
FC(F)(F)c1cc(COCC2(c3ccccc3)CCNCC2)cc(-c2cccnc2Cl)c1 | 7.00 to 11.00 | 7.00 to 11.00 | – | – | –
Cc1ccccc1-c1cc(COCC2(c3ccccc3)CCNCC2)cc(C(F)(F)F)c1 | 6.52 to 7.00 | 7.00 to 11.00 | – | – | –

Compound | pIC50 ([1]; Table 1) | pIC50 [2, 3] | pIC50 ([1]; Table 2) | pIC50 [2, 4] | pIC50 [2]
N#Cc1cc(F)c(-c2cc(COCC3(c4ccccc4)CCNCC3)cc(C(F)(F)F)c2)cc1F | – | – | 7.00 to 11.00 | 7.00 to 11.00 | –
COc1ccc(-n2nnnc2C)cc1COCC1(c2ccccc2)CCNCC1 | 7.00 to 11.00 | 7.00 to 11.00 | – | – | –
FC(F)(F)c1cc(COCC2(c3ccccc3)CCNCC2)cc(-c2cccc3cccnc23)c1 | 6.52 to 7.00 | 7.00 to 11.00 | – | – | –
CN1CCC(COCc2cc(-c3ccc(C#N)cc3)cc(C(F)(F)F)c2)(c2ccc(F)cc2)CC1 | 7.00 to 11.00 | – | – | – | 7.00 to 11.00
CN1CCC(COCc2cc(-c3ccc(C#N)cc3)cc(C(F)(F)F)c2)(c2cccc(Cl)c2)CC1 | – | – | 7.00 to 11.00 | – | 7.00 to 11.00
CN1CCC(COCc2cc(-c3ccc(C#N)c(Cl)c3)cc(C(F)(F)F)c2)(c2ccccc2)CC1 | – | – | 7.00 to 11.00 | – | 7.00 to 11.00
N#Cc1c(F)cc(-c2cc(COCC3(c4ccccc4)CCNCC3)cc(C(F)(F)F)c2)cc1F | – | – | 7.00 to 11.00 | 7.00 to 11.00 | –
FC(F)(F)c1cc(COCC2(c3ccccc3)CCNCC2)cc(-c2cccc3ccccc23)c1 | < 6.52 | 6.52 to 7.00 | – | – | –
COc1ccc(-c2cc(COCC3(c4ccccc4)CCN(C)CC3)cc(C(F)(F)F)c2)cc1 | – | – | 7.00 to 11.00 | – | 7.00 to 11.00
CN1CCC(COCc2cc(-c3ccc(C#N)cc3)cc(C(F)(F)F)c2)(c2cccc(Br)c2)CC1 | – | – | 7.00 to 11.00 | – | 7.00 to 11.00
COc1ccc(-c2ccc(C#N)cc2)cc1COCC1(c2ccccc2)CCNCC1 | 7.00 to 11.00 | 7.00 to 11.00 | – | – | –
CC(=O)c1ccc(-c2cc(COCC3(c4ccccc4)CCNCC3)cc(C(F)(F)F)c2)cc1 | 6.52 to 7.00 | 7.00 to 11.00 | – | – | –
FC(F)(F)c1cc(COCC2(c3ccccc3)CCNCC2)cc(-c2cccc3c2oc2ccccc23)c1 | < 6.52 | 7.00 to 11.00 | – | – | –
Fc1ccc(-c2cc(COCC3(c4ccc(F)cc4)CCNCC3)cc(C(F)(F)F)c2)cc1 | – | – | 7.00 to 11.00 | 7.00 to 11.00 | –
CN1CCC(COCc2cc(-c3cc(F)c(C#N)cc3F)cc(C(F)(F)F)c2)(c2ccccc2)CC1 | – | – | 7.00 to 11.00 | – | 7.00 to 11.00
FC(F)(F)c1cc(COCC2(c3ccccc3)CCNCC2)cc(-c2ccc(C3CCNCC3)nc2)c1 | – | – | < 6.52 | 7.00 to 11.00 | –
COc1ccc(-c2cc(COCC3(c4ccccc4)CCNCC3)cc(C(F)(F)F)c2)nn1 | – | – | 7.00 to 11.00 | 7.00 to 11.00 | –
COc1cc(-c2cc(COCC3(c4ccccc4)CCNCC3)cc(C(F)(F)F)c2)ccn1 | 7.00 to 11.00 | 7.00 to 11.00 | – | – | –

Reference: patent US20070249607A1, “NK-1 AND SEROTONIN TRANSPORTER INHIBITORS” (Bristol-Myers Squibb Company, priority 2006, published 2007)
